Measurements: patent US20210177806A1, “COMBINATION PHARMACEUTICAL, PROPHYLACTIC OR SUPPRESSIVE AGENT FOR DEVELOPMENT OF RESISTANCE TO PYRIMIDINE ANTIMETABOLITE, AND METHOD OF TREATING DISEASE” (FUJIFILM Corporation, priority 2018, published 2021)
Entries after “also recorded” stand apart in the source; their conditions may differ.

What was measured:
[1] = tested on: intracellular CTP (cytidine triphosphate) in leukemia cells (SKM-1); assay: Amount of intracellular CTP in leukemia cells after 4-month exposure; assay type: cell-based
Experimental: Intracellular CTP (cytidine triphosphate) competes with Aza-CTP (an active metabolite of Aza) and an increased amount of CTP may reduce sensitivity to Aza. […] Then, studies were conducted on the assumption that exposure to Compound A or a salt thereof or a hydrate thereof and Aza for a long time is effective for the recovery or retainment of sensitivity to Aza with the expectation that Compound A or a salt thereof or a hydrate thereof has an inhibitory effect on CTP increase.
The result is that a long-term (4 months) exposure of leukemia cells to a combination of Aza and Compound A.¾ hydrate caused a change in Aza sensitivity. […] Thus, treating an untreated MDS patient with a combination of Aza and Compound A or a salt thereof or a hydrate thereof is considered to be effective for maintaining their sensitivity to Aza.

[2] = tested on: MDS patients; assay: Administration to MDS patients (Examples 2 to 5); assay type: in vivo; details: for effect on the development of resistance to pyrimidine antimetabolite: 28-day cycle
Experimental: (§1) Compound A is administered to MDS patients (over 18 years of age) at a dose per one time of 400 mg/m^2 twice a day for 14 days. Administration of azacitidine is started on the day when the administration of Compound A is started. Azacitidine is administered subcutaneously or intravenously at a dose of 75 mg/m^2 for 7 days. The treatment cycle consists of 28 days. After the administration for 7 days, the administration is discontinued for 21 days.
Compound A is administered to MDS patients (over 18 years of age) at a dose per one time of 400 mg/m^2 twice a day for 21 days. Azacitidine is administered subcutaneously or intravenously at a dose of 75 mg/m^2 for 7 days. The treatment cycle consists of 28 days. After the administration for 7 days, the administration is discontinued for 21 days.
as §1, with “time of 300 mg/m^2 twice” for “time of 400 mg/m^2 twice”, “21 days. […] The day of the start of administration of Compound A may be earlier than the day of the start of administration of azacitidine. Furthermore, Compound A may be administered twice a day for 21 days as in Example 3.” for “21 days.”
as §1, with “time of 200 mg/m^2 twice” for “time of 400 mg/m^2 twice”, “21 days. […] The day of the start of administration of Compound A may be earlier than the day of the start of administration of azacitidine. Furthermore, Compound A may be administered twice a day for 21 days as in Example 3.” for “21 days.”
For the MDS patients in Examples 2 to 5, the therapeutic effect is evaluated for the following items in comparison with the outcome of an azacitidine single agent+BSC (Best Supportive Care: Support therapy, transfusion, administration of antibiotics, analgesics, antipyretics, antiemetics, etc. as required) (International Phase III Test “Aza-001”). The period for which the development of resistance to pyrimidine antimetabolite is prevented or suppressed in the above patients is preferably 3 months or more, preferably 4 months or more, preferably 5 months or more, preferably 6 months or more, and preferably 1 year or more.

[3] = tested on: SKM-1 leukemia cell line; assay: Cell proliferation assay for azacitidine after long-term culture (development of resistance); assay type: cell-based; details: for sensitivity to azacitidine (dose-response curve) / development of resistance: Aza group: SKM-1 treated 4 months with azacitidine only, 50 nmol/L to 1.6 mol/L
Experimental: SKM-1 (National Institute of Biomedical Innovation, Health and Nutrition) was used as leukemia cell line. Cells were cultured in RPMI 1640 medium (Life Technologies) containing 1% penicillin/streptomycin and 10% fetal bovine serum (FBS) in an environment of 37° C., 5% CO2 and saturated water vapor.
The respective cultures were subjected to long-term culture. The concentration of azacitidine was 50 nmol/L at the start and was doubled at 2-4 week intervals. When cultured for 2 weeks after the azacitidine concentration had reached […], the treated groups were subjected to an assay for cell proliferation for azacitidine.
In the cell proliferation assay, cells were first suspended in a medium so that the number of cells was 111,111 cells/mL, and 90 μL (10,000 cells) each of the resultant was seeded in a 96-well plate (Corning Incorporated) per well. Next, 10 μL of a PBS solution of azacitidine (0, 3, 10, 30, 100 or 300 μmon) was added to the plate, and the cells were cultured in an environment of 37° C., 5% CO2 and saturated water vapor for 72 hours.
The relative number of the cancer cells after the above incubation was measured in terms of emission intensity using Cell Titer Glo (Promega Corporation) reagent by a plate reader (Envision, PerkinElmer Inc.). With the number of cells at a concentration of azacitidine of 0 μmol/L as 100% and the emission intensity of the sample to which no cells were added as 0%, the relative value of emission intensity was calculated at each azacitidine concentration. The results of each group were plotted with the azacitidine concentration (mon) on the horizontal axis and the emission intensity (relative value) on the vertical axis.
Aza: SKM-1 cells treated for 4 months with gradual increase in the concentration of azacitidine (50 nmol/L to […]) Aza+A1: SKM-1 cells which were treated in the same manner as in the Aza group and to which Compound A was added at 1 μmon throughout the period of treatment. Aza+A10: SKM-1 cells which were treated in the same manner as in the Aza group and to which Compound A was added at 1 μmon throughout the period of treatment

[4] = tested on: azacitidine-resistant leukemia cell lines; details: cited from earlier work
[5] = tested on: MDS patients; details: AZA-001 test, cited from earlier work

Question: For `NC(=O)c1nc[nH]c1O` [Compound A, 5-Hydroxy-1H-imidazole-4-carboxamide], which “amount of intracellular CTP” value ([1]; Aza and Compound A combined from the start of the treatment) is on record?
Answer: Its value is “kept at a level similar to that in untreated cells”.

Question: What about the “effect on the development of resistance to pyrimidine antimetabolite” value (from here on “effect … to pyrimidine antimetabolite”) ([2]; Example 2: Compound A 400 mg/m^2 twice a day for 14 days with azacitidine 75 mg/m^2 for 7 days) of the same molecule?
Answer: Its value is “prophylactic or suppressive effect”.

Question: And the “effect … to pyrimidine antimetabolite” value ([2]; Example 3: Compound A 400 mg/m^2 twice a day for 21 days with azacitidine 75 mg/m^2 for 7 days)?
Answer: The value was “prophylactic or suppressive effect”.

Question: What about the “side effects in patients” value ([2]; Example 4: Compound A 300 mg/m^2 twice a day for 14 days with azacitidine) of the same molecule?
Answer: Its value is “side effects in patients can be reduced”.

Question: And the “effect … to pyrimidine antimetabolite” value ([2]; Example 4: Compound A 300 mg/m^2 twice a day for 14 days with azacitidine 75 mg/m^2 for 7 days)?
Answer: The value was “prophylactic or suppressive effect”.

Question: And the “side effects in patients” value ([2]; Example 5: Compound A 200 mg/m^2 twice a day for 14 days with azacitidine)?
Answer: Its value is “side effects in patients can be reduced”.

Question: And the “effect … to pyrimidine antimetabolite” value ([2]; Example 5: Compound A 200 mg/m^2 twice a day for 14 days with azacitidine 75 mg/m^2 for 7 days)?
Answer: Its value is “prophylactic or suppressive effect”.

Question: And the “effect on the development of resistance to Aza” value ([3]; 4-month exposure of naive SKM-1 to Aza and Compound A (1 mon or 10 μmon))?
Answer: Its value is “prophylactic or suppressive effect; also recorded: almost complete elimination of the development of resistance to Aza”.

Question: And the “sensitivity to azacitidine (dose-response curve)” value ([3]; Aza+A1 group: treated as Aza group plus Compound A at 1 μmon throughout)?
Answer: The value was “almost the same as that of the control group”.

Question: And the “sensitivity to azacitidine (dose-response curve)” value ([3]; Aza+A10 group: treated as Aza group plus Compound A at 10 mon throughout)?
Answer: Its value is “almost the same as that of the control group”.

Question: What about the “cell growth inhibitory activity / cross resistance” value [4] of the same molecule?
Answer: Its value is “cell growth inhibitory activity without cross resistance”.

Question: Which 2-year survival rate [5] does the source give for `Nc1ncn([C@@H]2O[C@H](CO)[C@@H](O)[C@H]2O)c(=O)n1` [azacitidine, 4-amino-1-β-D-ribofuranosyl-1,3,5-triazin-2(1H)-one] here?
Answer: Its 2-year survival rate is 50.8%.

Question: What about the “Hematologic response rate according to IWG criteria (2000 edition)” value [5] of the same molecule?
Answer: Its value is 6.7%.

Question: And the “Hematological improvement according to IWG criteria (2000 edition)” value [5]?
Answer: The value was 49.2%.

Question: And the “Median time of AML transformation” value [5]?
Answer: The value was 20.7 months.

Question: What about the “Median time of AML transformation or death” value [5] of the same molecule?
Answer: The value was 13.0 months.

Question: What about the “Survival (median)” value [5] of the same molecule?
Answer: The value was 24.5 months.

Question: What about the “patients who achieved platelet transfusion-independence from dependence” value ([5]; no platelet transfusions for consecutive 56 days or more) of the same molecule?
Answer: Its value is 42.1%.

Question: What about the “patients who achieved red blood cell transfusion-independence from dependence” value ([5]; no red blood cell transfusions for consecutive 56 days or more) of the same molecule?
Answer: Its value is 45.0%.

Question: And the “amount of intracellular CTP” value ([1]; 4-month exposure to only Aza)?
Answer: The value was “an increase in the amount of intracellular CTP”.

Question: And the “sensitivity to azacitidine (dose-response curve) / development of resistance” value [3]?
Answer: The value was “the dose-response curve shifted to the right”.

Question: And the “sensitivity to azacitidine (dose-response curve) / development of resistance” value ([3]; listed as Aza)?
Answer: Its value is “resulting in the development of resistance”.

Question: And the “emission intensity (relative value) / number of viable cells” value ([3]; SKM-1, all groups, azacitidine 72 hours, Cell Titer Glo)?
Answer: Its value is “decreased azacitidine concentration-dependently”.
